Data reported in patent US5459152A, “Platelet activating factor antagonists” (Abbott Laboratories, priority 1993, dated 1995).
Where two headings read alike, the source gives them in different places.

Molecular target: T1, PAF receptor (Oryctolagus cuniculus, UniProt G1TEI7)
T1 construct: platelet membranes where prepared by centrifugation and washing; tissue Pel-Freez (Rogers, AR) (whole rabbit blood); host or cells: rabbit platelet membranes
Assay: PAF receptor binding assay ([3H]C18-PAF, rabbit platelet membranes)
Details: read-out: PAF Receptor Binding Activity K1
Description: The ability of representative compounds of the present invention to inhibit PAF activity was determined in an in vitro test using the following method.
Citrated whole rabbit blood was obtained from Pel-Freez (Rogers, AR). Rabbit platelets where prepared by centrifugation and washing. The platelets where lysed by freeze-thawing and sonication; platelet membranes where prepared by centrifugation and washing. Final membrane preparations where stored frozen in 10 mM Tris/5 mM MgCl2 /2 mM EDTA (TME buffer, pH 7.0) with 0.25 M sucrose added for membrane stabilization.
The final volume of the assay was 100 μl. The assay was conducted in Millititre-GV™ (Millipore Corp.) filtration plates; incubation time was for 60 minutes at room temperature (22°-23° C.). "Specific binding" was operationally defined as the arithmetic difference between "total binding" of 0.6 nM [^3 H]C18 -PAF (in the absence of added PAF) and "nonspecific binding" (in the presence of 1 μM PAF). After the prescribed incubation, platelet membranes where filtered under vacuum and washed with 1 millilitre of "binding buffer". The filters was dried and removed. The bound radioactivity was quantitated with a Berthold TLC-Linear Analyzer model LB2842.
Experiments where repeated at least once.

[1] = inhibition of specific binding of 0.6 nM [3H]C18-PAF to rabbit platelet membranes, 60 min, room temperature, Ki calculated from IC50 by Cheng and Prusoff

T1 sequence (G1TEI7 1-342): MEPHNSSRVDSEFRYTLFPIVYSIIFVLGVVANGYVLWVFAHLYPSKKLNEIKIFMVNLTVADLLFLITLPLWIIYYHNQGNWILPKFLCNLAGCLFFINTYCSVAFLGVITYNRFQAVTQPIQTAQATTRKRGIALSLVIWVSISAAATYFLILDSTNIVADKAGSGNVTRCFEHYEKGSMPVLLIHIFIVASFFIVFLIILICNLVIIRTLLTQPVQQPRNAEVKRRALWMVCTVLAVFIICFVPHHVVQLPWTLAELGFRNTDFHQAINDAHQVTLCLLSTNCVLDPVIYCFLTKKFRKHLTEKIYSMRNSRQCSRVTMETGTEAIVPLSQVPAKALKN

Ki [nM]	Compound	Ki [1] [nM]
1100	O=C(c1ccn2c1CSC2c1cccnc1)c1cn(S(=O)(=O)c2ccccc2)c2cc(-c3ccc(F)cc3)ccc12 (stereo not shown) [Example 61, 3-(Pyridin-3-yl)-7-[1-phenylsulfonyl-6-(4-fluorophenyl)indol-3-ylcarbonyl]-1H,3H-pyrrolo[1,2-c]thiazole]	
17	CN(C)C(=O)n1cc(C(=O)c2ccn3c2CSC3c2cccnc2)c2ccc(OCc3ccccc3)cc21 (stereo not shown) [Example 7, 3-(Pyridin-3-yl)-7-(1-N,N-dimethylcarbamoyl-6-phenylmethoxyindol-3-yl)carbonyl-1H,3H-pyrrolo[1,2-c]thiazole]	
210	CN(C)S(=O)(=O)n1cc(C(=O)c2ccn3c2CSC3c2ccc[n+]([O-])c2)c2ccc(-c3ccc(F)cc3)cc21 (stereo not shown) [Example 60, 3-(1-Oxide-pyridin-3-yl)-7-[1-N,N-dimethylsulfamyl-6-(4-fluorophenyl)indol-3-ylcarbonyl]-1H,3H-pyrrolo[1,2-c]thiazole]	
35	COC(=O)n1cc(C(=O)c2ccn3c2CSC3c2cccnc2)c2ccc(OCc3ccccc3)cc21 (stereo not shown) [Example 18]	
225	O=C(c1ccn2c1CSC2c1cccnc1)c1cn(C(=O)N2CCOCC2)c2ccccc12 (stereo not shown) [Example 11, 3-(Pyridin-3-yl)-7-[1-(morpholin-4-ylcarbonyl)indol-3-yl]carbonyl-1H,3H-pyrrolo[1,2-c]thiazole]	
8	COc1cc(-c2ccc3c(C(=O)c4ccn5c4CSC5c4cccnc4)cn(C(=O)N(C)C)c3c2)cc(OC)c1OC (stereo not shown) [Example 48, 3-(Pyridin-3-yl)-7-[1-N,N-dimethylcarbamoyl-6-(3,4,5-trimethoxyphenyl)indol-3-ylcarbonyl]-1H,3H-pyrrolo[1,2-c]thiazole]	
120	CS(=O)(=O)n1cc(C(=O)c2ccn3c2CSC3c2cccnc2)c2ccc(-c3ccc(F)cc3)cc21 (stereo not shown) [Example 51, 3-(Pyridin-3-yl)-7-[1-methanesulfonyl-6-(4-fluorophenyl)indol-3-ylcarbonyl]-1H,3-pyrrolo[1,2-c]thiazole]	
580	O=C(c1ccn2c1CSC2c1cccnc1)c1c[nH]c2cc(Br)ccc12 (stereo not shown) [Example 63, 3-(Pyridin-3-yl)-7-(6-bromoindol-3-ylcarbonyl)-1H,3H-pyrrolo[1,2-c]thiazol]	
100	CN(C)C(=O)n1cc(C(=O)c2ccn3c2C(C)(C)SC3c2cccnc2)c2ccccc21 (stereo not shown) [Example 19, 1,1-Dimethyl-3-(pyridin-3-yl)-7-(1-N,N-dimethylcarbamoyl-indol-3-ylcarbonyl)-1H,3H-pyrrolo[1,2-c]thiazole]	
	COc1ccc(-c2ccc3c(C(=O)c4ccn5c4CSC5c4cccnc4)cn(C(=O)N(C)C)c3c2)cc1 (stereo not shown) [Example 40, 3-(Pyridin-3-yl)-7-[1-N,N-dimethylcarbamoyl-6-(4-methoxyphenyl)indol-3-ylcarbonyl]-1H,3H-pyrrolo[1,2-c]thiazole]	26
19	CCNC(=O)n1cc(C(=O)c2ccn3c2CSC3c2cccnc2)c2ccc(-c3ccc(F)cc3)cc21 (stereo not shown) [Example 99]	
120	CN(C)C(=O)n1cc(C(=O)c2ccn3c2CSC3c2cccnc2)c2cc(OCc3ccccc3)ccc21 (stereo not shown) [Example 6, 3-(Pyridin-3-yl)-7-(N,N-dimethylcarbamoyl-5-phenylmethoxyindol-3-yl)carbonyl-1H,3H-pyrrolo[1,2-c]thiazole]	
7.4	O=C(c1ccn2c1CSC2c1cccnc1)c1cn(C(=O)NCCO)c2cc(-c3ccc(F)cc3)ccc12 (stereo not shown) [Example 62, 3-(Pyridin-3-yl)-7-[1-N-(2-hydroxyethyl)carbamoyl-6-(4-fluorophenyl)indol-3-ylcarbonyl]-1H,3H-pyrrolo[1,2-c]thiazole]	
85	CC(C)N(C(=O)n1cc(C(=O)c2ccn3c2CSC3c2cccnc2)c2ccc(OCc3ccccc3)cc21)C(C)C (stereo not shown) [Example 16, 3-(Pyridin-3-yl)-7-(1-N,N-diisopropylcarbamoyl-6-phenylmethoxyindol-3-ylcarbonyl)-1H,3H-pyrrolo[1,2-c]thiazole]	
25	NNC(=O)n1cc(C(=O)c2ccn3c2CSC3c2cccnc2)c2ccc(-c3ccc(F)cc3)cc21 (stereo not shown) [Example 69, 3-(Pyridin-3-yl)-7-[1-hydrazinocarbonyl-6-(4-fluorophenyl)indol-3-ylcarbonyl]-1H,3H-pyrrolo[1,2-c]thiazole]	
10	NC(=O)n1cc(C(=O)c2ccn3c2CSC3c2cccnc2)c2ccc(OCc3ccccc3)cc21 (stereo not shown) [Example 37, 3-(Pyridin-3-yl)-7-(1-carbamoyl-6-phenylmethoxyindol-3-ylcarbonyl)-1H,3H-pyrrolo[1,2-c]thiazole]	

Ki [nM]	Compound	Ki [1] [nM]
211	O=C(c1ccn2c1CSC2c1ccc[n+]([O-])c1)c1cn(S(=O)(=O)c2ccccc2)c2cc(-c3ccc(F)cc3)ccc12 (stereo not shown) [Example 73, 3-(1 -Oxide-pyridin-3-yl)-7-[1-phenylsulfonyl-6-(4-fluorophenyl)indol-3-ylcarbonyl]-1H,3-pyrrolo[1,2-c]thiazole]	
8	CN(C)C(=O)n1cc(C(=NNC(N)=O)c2ccn3c2CSC3c2cccnc2)c2ccc(-c3ccc(F)cc3)cc21 (stereo not shown) [Example 106, 3-(pyridin-3-yl)-7-[1-N,N-dimethylcarbamoyl-6-(4-fluorophenyl)indol-3-ylcarbonylsemicarbazide]-1H,3H-pyrrolo[1,2-c]thiazole]	
40	CN(C)C(=O)n1cc(C(=O)c2ccn3c2CSC3c2ccc[n+]([O-])c2)c2ccccc21 (stereo not shown) [Example 44, 3-(1-Oxide-pyridin-3-yl)-7-(1-N,N-dimethylcarbamoylindol-3-ylcarbonyl)-1H,3H-pyrrolo[1,2-c]thiazole]	
	3-(Pyridin-3-yl)-7-[1-N-sulfoethylcarbamoyl-6-(4-fluorophenyl)indol- 3-ylcarbonyl]-1H,3H-pyrrolo[1,2-c]thiazole [Example 100]	> 300
44	CNC(=O)n1cc(C(=O)c2ccn3c2CSC3c2ccc[n+]([O-])c2)c2ccc(-c3ccccc3)cc21 (stereo not shown) [Example 35, 3-(1-Oxide-pyridin-3-yl)-7-(1-N-methylcarbamoyl-6-phenylindol-3-ylcarbonyl)-1H,3H-pyrrolo[1,2-c]thiazole]	
244	CCS(=O)(=O)n1cc(C(=O)c2ccn3c2CSC3c2cccnc2)c2ccc(-c3ccc(F)cc3)cc21 (stereo not shown) [Example 71, 3-(Pyridin-3-yl)-7-[1-ethanesulfonyl-6-[4-fluorophenyl)indol-3-ylcarbonyl]-1H,3H-pyrrolo[1,2-c]thiazole]	
2000	CN(C)C(=O)n1cc(C(=O)c2ccn3c2CSC3c2cccnc2)c2ccccc21 (stereo not shown) [Example 2, 3-(Pyridin-3-yl)-7-(1-N,N-dimethylcarbamoylindol-3-yl)carbonyl-1H,3H-pyrrolo[1,2-c]thiazole]	
38	CN(C)C(=O)n1cc(C(=O)c2ccn3c2CSC3c2ccc[n+]([O-])c2)c2ccc(Cl)cc21 (stereo not shown) [Example 66, 3-(1-Oxide-Pyridin-3-yl)-7-(1-N,N-dimethylcarbamoyl-6-chloroindol-3-ylcarbonyl)-1H,3H-pyrrolo[1,2-c]thiazole]	
272	COc1ccc(-c2ccc3c(C(=O)c4ccn5c4C(C)(C)SC5c4cccnc4)c[nH]c3c2)cc1 (stereo not shown) [Example 25, 1,1-Dimethyl-3-(pyridin-3-yl)-7-[6-(4-methoxyphenyl)indol-3-ylcarbonyl]-1H,3H-pyrrolo[1,2-c]thiazole]	
95	O=C(c1ccn2c1CSC2c1cccnc1)c1c[nH]c2cc(-c3ccccc3)ccc12 (stereo not shown) [Example 10, 3-(Pyridin-3-yl)-7-(6-phenylindol-3-yl)carbonyl-1H,3H-pyrrolo[1,2-c]thiazole]	
180	O=C(c1ccn2c1CSC2c1cccnc1)c1c[nH]c2ccc(OCc3ccccc3)cc12 (stereo not shown) [Example 3, 3-(Pyridin-3-yl)-7-(5-phenylmethoxyindol-3-yl)carbonyl-1H,3H-pyrrolo[1,2-c]thiazole]	
4.3	O=C(c1ccn2c1CSC2c1cccnc1)c1cn(C(=O)NCCc2c[nH]cn2)c2cc(-c3ccc(F)cc3)ccc12 (stereo not shown) [Example 105, 3-(Pyridin-3-yl)-7-[1-N-(2-(4-imidazolyl)ethyl)carbamoyl-6-(4-fluorophenyl)indol-3-ylcarbonyl]-1H,3H-pyrrolo[1,2-c]thiazole]	
280	CN(C)C(=O)n1cc(C(=O)c2ccn3c2CSC3c2cccnc2)c2ccc(-c3cnc(N)nc3)cc21 (stereo not shown) [Example 89]	
110	CC(C)(C)OC(=O)n1cc(C(=O)c2ccn3c2CSC3c2cccnc2)c2ccccc21 (stereo not shown) [Example 9, 3-(Pyridin-3-yl)-7-(1-tert-butyloxycarbonylindol-3-yl)carbonyl-1H,3H-pyrrolo[1,2-c]thiazole]	
	3-[Pyridin-3-yl)-7-(6-pyrimid-2-ylindol-3-ylcarbonyl)-1H,3H-pyrrolo[1,2-c]thiazole [Example 74]	84

Compound	Ki [nM]	Ki [1] [nM]
NC(=O)Cn1cc(C(=O)c2ccn3c2CSC3c2cccnc2)c2ccc(-c3ccc(F)cc3)cc21 (stereo not shown) [Example 95, 3-(Pyridin-3-yl)-7-[1-carbamoylmethyl-6-(4-fluorophenyl)indol-3-ylcarbonyl]-1H,3H-pyrrolo[1,2-c]thiazole]	10	
CN(CO)C(=O)Cn1cc(C(=O)c2ccn3c2CSC3c2cccnc2)c2ccc(-c3ccc(F)cc3)cc21 (stereo not shown) [Example 93]	0.8	
NS(=O)(=O)CCn1cc(C(=O)c2ccn3c2CSC3c2ccc[n+]([O-])c2)c2ccc(-c3ccc(F)cc3)cc21 (stereo not shown) [Example 79, 3-(3-Oxide-pyridin-3-yl)-7-[1-(2-aminosulfonylethyl)-6-(4-fluorophenyl)indol-3-ylcarbonyl]-1H,3H-pyrrolo[1,2-c]thiazole]	18	
